From PMC3037272 (Journal of medicinal chemistry, 2010) come the findings set out here.

A value given as a limit tells only on which side of the number the result lay.

In experiment [1] the target is T1, 26S proteasome β1 subunit (Oryctolagus cuniculus, UniProt A0A5F9DQW2).
T1 sequence (A0A5F9DQW2 1-212): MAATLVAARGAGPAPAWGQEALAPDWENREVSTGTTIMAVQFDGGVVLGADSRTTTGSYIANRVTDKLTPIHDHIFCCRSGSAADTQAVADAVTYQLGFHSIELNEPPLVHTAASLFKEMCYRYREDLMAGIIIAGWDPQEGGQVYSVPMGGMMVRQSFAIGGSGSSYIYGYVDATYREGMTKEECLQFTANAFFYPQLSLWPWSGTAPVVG
In kind it is biochemical, rabbit.

Experiment [2] concerns the target T2, 26S proteasome β2 subunit (Oryctolagus cuniculus, UniProt G1SWK8).
T2 sequence (G1SWK8 1-271): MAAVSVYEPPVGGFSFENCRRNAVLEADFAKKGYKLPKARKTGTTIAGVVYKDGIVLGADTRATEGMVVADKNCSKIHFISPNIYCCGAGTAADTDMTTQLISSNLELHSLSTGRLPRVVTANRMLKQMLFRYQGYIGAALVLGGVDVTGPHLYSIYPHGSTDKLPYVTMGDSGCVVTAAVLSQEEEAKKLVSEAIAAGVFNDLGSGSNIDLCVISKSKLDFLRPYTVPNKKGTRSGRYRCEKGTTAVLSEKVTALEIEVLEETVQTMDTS

Experiment [3] addresses T3, 26S proteasome β5 subunit (Oryctolagus cuniculus, UniProt G1T4Q9).
T3 sequence (G1T4Q9 1-263): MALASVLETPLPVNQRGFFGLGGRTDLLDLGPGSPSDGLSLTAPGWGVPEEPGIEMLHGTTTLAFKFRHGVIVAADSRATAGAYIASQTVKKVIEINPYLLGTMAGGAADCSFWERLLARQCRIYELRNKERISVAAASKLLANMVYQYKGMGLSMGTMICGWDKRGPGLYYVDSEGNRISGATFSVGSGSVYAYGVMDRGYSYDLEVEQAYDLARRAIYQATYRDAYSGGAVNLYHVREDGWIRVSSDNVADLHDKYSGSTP
It is filed as biochemical, rabbit.

A further experiment deals with proteasome β5 subunit (Homo sapiens, UniProt P28074). The experiment in a line: Competition assay against fluorescent probe MV151. In kind it is binding. Conditions: HEK-293 lysate.
The next experiment has as its target proteasome β2 subunit (Homo sapiens, UniProt Q99436). As to the kind of experiment: Competition assay against fluorescent probe MV151. Conditions: HEK-293 lysate.
For another experiment, the target named is proteasome β1 subunit (Homo sapiens, UniProt P28072). As to the kind of experiment: Competition assay against fluorescent probe MV151. The conditions noted are these: HEK-293 lysate, between 100 and 250 nM, competition against 9. In kind it is binding.

As for `CC(C)C[C@H](NC(=O)[C@H](Cc1ccccc1)NC(=O)[C@H](Cc1c(F)c(F)c(F)c(F)c1F)NC(=O)[C@H](Cc1ccccc1)N=[N+]=[N-])C(=O)[C@@]1(C)CO1` [5a], the IC50 is more than 15000 nM in experiment [1], more than 15000 nM in experiment [2] and 200 nM in experiment [3].

With `CC1=CC(C)=[N+]2C1=C(CCCCc1cn([C@@H](Cc3ccccc3)C(=O)N[C@@H](Cc3ccccc3)C(=O)N[C@@H](Cc3c(F)c(F)c(F)c(F)c3F)C(=O)N[C@@H](CC(C)C)C(=O)[C@@]3(C)CO3)nn1)c1c(C)cc(C)n1[B-]2(F)F` [compound 7], the IC50 was more than 10000 nM in experiment [1], more than 10000 nM in experiment [2] and 300 nM in experiment [3]. Also, the “concentration at which labeling of the β5 subunit is visible” value on proteasome β5 subunit (direct fluorescent labeling, read-out at 520 nm) was 1 nM.

Regarding `CC(C)C[C@H](NC(=O)[C@H](Cc1c(F)c(F)c(F)c(F)c1F)NC(=O)[C@H](Cc1ccccc1)NC(=O)[C@H](Cc1ccccc1)N=[N+]=[N-])C(=O)[C@@]1(C)CO1` [4a], at proteasome β2 subunit (1 μM inhibitor, Figure 3), the “β2 band in competition assay” value is on record as “the majority of the corresponding band in Figure 3 is gone”. In addition, the “effect on β2 when β5 is saturated” value on proteasome β2 subunit (between 100 and 250 nM, competition against 9) is on record as “unaffected or even upregulated”. In addition, the IC50 in experiment [1] was more than 15000 nM. The “effect on β1 when β5 is saturated” value on proteasome β1 subunit is given as “unaffected or even upregulated”. Moreover, the “concentration at which inhibition of β5 is apparent” value on proteasome β5 subunit (concentration series 1 nM to 1 μM, competition against 9) is recorded as 5 nM.

Turning to `CC(C)C[C@H](NC(=O)[C@H](Cc1ccccc1)NC(=O)[C@H](Cc1cc(C(F)(F)F)cc(C(F)(F)F)c1)NC(=O)[C@H](Cc1ccccc1)N=[N+]=[N-])C(=O)[C@@]1(C)CO1` [5b], the IC50 in experiment [1] is more than 15000 nM; in experiment [2], more than 15000 nM; in experiment [3] it was 130 nM.

With `CC(C)C[C@H](NC(=O)[C@H](Cc1ccccc1)NC(=O)[C@H](Cc1ccccc1)NC(=O)[C@H](Cc1ccccc1)N=[N+]=[N-])C(=O)[C@@]1(C)CO1` [compound 3], in experiment [1], the IC50 is more than 15000 nM.

As for `CC(C)C[C@H](NC(=O)[C@H](Cc1cc(C(F)(F)F)cc(C(F)(F)F)c1)NC(=O)[C@H](Cc1ccccc1)NC(=O)[C@H](Cc1ccccc1)N=[N+]=[N-])C(=O)[C@@]1(C)CO1` [4b], the values for the IC50 in experiment [1], in experiment [2] and in experiment [3] were more than 15000 nM, more than 15000 nM and 100 nM, respectively.

In experiment [1], `CC(C)C[C@H](NC(=O)[C@H](Cc1c(F)c(F)c(F)c(F)c1F)NC(=O)c1cnccn1)B1OC2C[C@@H]3C[C@@H](C3(C)C)[C@]2(C)O1` (some centres unmarked) [2a] registered an IC50 of 440 nM.

For the molecule `CC(C)C[C@H](NC(=O)[C@H](Cc1cc(C(F)(F)F)cc(C(F)(F)F)c1)NC(=O)c1cnccn1)B1OC2C[C@@H]3C[C@@H](C3(C)C)[C@]2(C)O1` (some centres unmarked) [2b], the IC50 in experiment [1] came to 160 nM; in experiment [2], 11000 nM; in experiment [3], 3 nM.

In general, IC50 refers to the concentration that gives 50% inhibition. Higher therefore signals weaker potency.
